Measurements as given in US20150320706A1, “FORMULATIONS AND METHODS OF TREATING ALZHEIMER'S DISEASE AND OTHER PROTEINOPATHIES BY COMBINATION THERAPY” (CHIESI FARMACEUTICI S.P.A., priority 2014, published 2015).
“Also recorded” adds a separate entry of the source.

Legend:
[1] = tested on: cognitively normal elderly subjects; details: cited from earlier work
β-amyloid = details: cited from earlier work
[2] = tested on: patients with mild cognitive impairment (MCI); details: cited from earlier work
[3] = tested on: MCI (mild cognitively impaired) patients; assay: Cognitive tests in open label extension study of CHF 5074 in MCI patients; type: in vivo, human
Protocol: (§1) In Example 1, the safety and tolerability and cognitive effects of CHF 5074 was analyzed after prolonged treatment in MCI (mild cognitively impaired) patients.
(§2) Methods: At the end of a 14-week double-blind, placebo-controlled study in 96 MCI patients evaluating three titrated dose regimens of CHF 5074 (200, 400 and 600 mg/day), patients were given the option to enter a 76-week open label extension study. Patients received CHF 5074 at the dose equal to that of their originally assigned double-blind study cohort. Patients were monitored for vital signs, cardiac activity, neuropsychological performance and safety laboratory parameters.

[4] = tested on: MCI (mild cognitively impaired) patients; assay: Safety and tolerability after prolonged treatment in MCI patients; type: in vivo, human
Protocol: as §1, §2

sCD40L and TNF-α = assay: Neuroinflammation biomarkers in cerebrospinal fluid of MCI patients; type: in vivo, human; details: MCI patients, 200, 400 and 600 mg/day
Protocol: as §2

[5] = tested on: TNF-α and soluble CD 40 ligand (sCD40L); details: healthy subjects and individuals with MCI; cited from earlier work
microglia = details: response to an Aβ42 stimulus; cited from earlier work
Notch = details: cited from earlier work
[6] = tested on: human APP transgenic mice models of AD; details: transgenic mouse models of AD; cited from earlier work
[7] = in vivo, cited from earlier work
Aβ42 = details: in vitro; cited from earlier work
[8] = APOE4 non-carriers, Study Week 64

Chain of β-amyloid (P05067 672-711 limits assumed): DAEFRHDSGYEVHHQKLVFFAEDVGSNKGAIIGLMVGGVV

What does the source list for `COc1ccc2cc([C@H](C)C(=O)O)ccc2c1` [naproxen]?
protection from the onset of AD compared to placebo ([1]; 4-year follow-up assessment): 67%; incidence of dementia ([1]; after two years of treatment): neither drug reduced the incidence of dementia

With “MABT5102A: humanized monoclonal antibody against human Aβ1-40 and Aβ1-42 with an IgG4 backbone which reduces effector function” as the molecule, how does the “binding to β-amyloid species” value (β-amyloid) read?
Its value is “binds to soluble, oligomeric and fibrillar β-amyloid deposits”.

For `CS(=O)(=O)c1ccc(C2=C(c3ccccc3)C(=O)OC2)cc1` [rofecoxib], which “outcome of secondary prevention study” value [2] is on record?
The value was “negative”.

Which results are given for `O=C(O)C1(c2ccc(-c3ccc(Cl)c(Cl)c3)c(F)c2)CC1` [CHF 5074, 1-(3′,4′-dichloro-2-fluorobiphenyl-4-yl)cyclopropanecarboxylic acid]?
verbal memory, week 88 change from baseline, comparison of doses ([3]; 200 mg/day and 400 mg/day compared to 600 mg/day (FIG. 1)): surprisingly superior; verbal memory at week 88 (number of words) ([3]; 200 mg/day and 400 mg/day doses (FIG. 8)): dose-dependent improvement; improvements as share of Baseline scores ([3]; APOE4 carriers, Immediate Word Recall and Trail Making Test-A, Study Week 64): 25-38%; Immediate Word Recall, improvement compared to Baseline ([3]; APOE4 carriers, Study Week 64, p=0.012 vs non-carriers): +5.4±1.2 words; Trail Making Test-A, improvement compared to Baseline ([3]; APOE4 carriers, Study Week 64, p=0.034 vs non-carriers): -12.4 ± 2.8 s; Immediate Word Recall, improvement compared to Baseline [3, 8]: +1.4±0.9 words; Trail Making Test-A, improvement compared to Baseline [3, 8]: -5.6 ± 3.3 s; Digit Symbol Substitution Test, improvement compared to Baseline ([3]; interim analysis, 32 patients reaching Study Week 64, p<0.001): +4.8±1.1 matches; Immediate Word Recall, improvement compared to Baseline ([3]; interim analysis, 32 patients reaching Study Week 64, p=0.001): +2.9±0.8 words; Trail Making Test-A, improvement compared to Baseline ([3]; interim analysis, 32 patients reaching Study Week 64, p=0.002): -8.1 ± 2.4 s; Delayed Word Recall, improvement compared to Baseline ([3]; interim analysis, 32 patients reaching Study Week 64, p=0.003): +1.3±0.4 words; Trail Making Test-B, improvement compared to Baseline ([3]; interim analysis, 32 patients reaching Study Week 64, p=0.004): -14.5 ± 4.6 s; diarrhea, patients reporting ([4]; 200 mg/day): 1.4%; diarrhea, patients reporting ([4]; 400 mg/day): 6.3%; drop-outs for adverse events ([4]; 400 mg/day group, at Study Week 40 (pneumonia)): one; diarrhea, patients reporting ([4]; 600 mg/day): 16.0%; drop-outs for adverse events ([4]; 600 mg/day group, at Study Week 40 (serum creatinine elevation and worsening of cognitive function)): two; safety profile ([4]; MCI patients): acceptable safety profile; tolerability ([4]; prolonged treatment at doses up to and including 400 mg/day): well tolerated; neuroinflammation biomarkers (CSF sCD40L and TNF-α) (sCD40L and TNF-α): dose-dependently lowered; CSF biomarkers of neuroinflammation, TNF-α and sCD40L [5]: lowers, in a dose-dependent fashion; M1 inflammatory activity of microglia (microglia): blunting or inhibiting M1 inflammatory activity; M2 phagocytic responses of microglia (microglia): stimulating M2 phagocytic responses; effects on Notch processing (Notch): lack of effects on Notch processing; brain plaque deposition [6]: prevent brain plaque deposition; also recorded: inhibit brain plaque deposition; memory deficits [6]: attenuate memory deficits; also recorded: attenuate or reverse associated memory deficits; oral absorption ([7]; po): good oral absorption; brain penetration [7]: satisfactory brain penetration; half-life [7]: long half-life; Aβ42 inhibitory activity (Aβ42): selective Aβ42 inhibitory activity
